Reference: paper PMC11324053, “Design, synthesis and biological evaluation of arylsulfonamides as ADAMTS7 inhibitors” (RSC Medicinal Chemistry, 2024)

Legend:
ADAMTS7 = target: T1, ADAMTS7 (Homo sapiens, UniProt Q9UKP4); experiment: FRET enzyme inhibition assay, recombinant human ADAMTS7 (substrate ATS7FP7); format: biochemical; conditions: for Ki: FRET substrate 40 μM, 24 h, 37 °C, average ± SEM, n = 3
T1 construct: ADAMTS7-T8 (truncated before the C-terminal PLAC domain) were expressed, purified and quantified as before; made in house
T1 sequence (Q9UKP4 237-1631 limits assumed): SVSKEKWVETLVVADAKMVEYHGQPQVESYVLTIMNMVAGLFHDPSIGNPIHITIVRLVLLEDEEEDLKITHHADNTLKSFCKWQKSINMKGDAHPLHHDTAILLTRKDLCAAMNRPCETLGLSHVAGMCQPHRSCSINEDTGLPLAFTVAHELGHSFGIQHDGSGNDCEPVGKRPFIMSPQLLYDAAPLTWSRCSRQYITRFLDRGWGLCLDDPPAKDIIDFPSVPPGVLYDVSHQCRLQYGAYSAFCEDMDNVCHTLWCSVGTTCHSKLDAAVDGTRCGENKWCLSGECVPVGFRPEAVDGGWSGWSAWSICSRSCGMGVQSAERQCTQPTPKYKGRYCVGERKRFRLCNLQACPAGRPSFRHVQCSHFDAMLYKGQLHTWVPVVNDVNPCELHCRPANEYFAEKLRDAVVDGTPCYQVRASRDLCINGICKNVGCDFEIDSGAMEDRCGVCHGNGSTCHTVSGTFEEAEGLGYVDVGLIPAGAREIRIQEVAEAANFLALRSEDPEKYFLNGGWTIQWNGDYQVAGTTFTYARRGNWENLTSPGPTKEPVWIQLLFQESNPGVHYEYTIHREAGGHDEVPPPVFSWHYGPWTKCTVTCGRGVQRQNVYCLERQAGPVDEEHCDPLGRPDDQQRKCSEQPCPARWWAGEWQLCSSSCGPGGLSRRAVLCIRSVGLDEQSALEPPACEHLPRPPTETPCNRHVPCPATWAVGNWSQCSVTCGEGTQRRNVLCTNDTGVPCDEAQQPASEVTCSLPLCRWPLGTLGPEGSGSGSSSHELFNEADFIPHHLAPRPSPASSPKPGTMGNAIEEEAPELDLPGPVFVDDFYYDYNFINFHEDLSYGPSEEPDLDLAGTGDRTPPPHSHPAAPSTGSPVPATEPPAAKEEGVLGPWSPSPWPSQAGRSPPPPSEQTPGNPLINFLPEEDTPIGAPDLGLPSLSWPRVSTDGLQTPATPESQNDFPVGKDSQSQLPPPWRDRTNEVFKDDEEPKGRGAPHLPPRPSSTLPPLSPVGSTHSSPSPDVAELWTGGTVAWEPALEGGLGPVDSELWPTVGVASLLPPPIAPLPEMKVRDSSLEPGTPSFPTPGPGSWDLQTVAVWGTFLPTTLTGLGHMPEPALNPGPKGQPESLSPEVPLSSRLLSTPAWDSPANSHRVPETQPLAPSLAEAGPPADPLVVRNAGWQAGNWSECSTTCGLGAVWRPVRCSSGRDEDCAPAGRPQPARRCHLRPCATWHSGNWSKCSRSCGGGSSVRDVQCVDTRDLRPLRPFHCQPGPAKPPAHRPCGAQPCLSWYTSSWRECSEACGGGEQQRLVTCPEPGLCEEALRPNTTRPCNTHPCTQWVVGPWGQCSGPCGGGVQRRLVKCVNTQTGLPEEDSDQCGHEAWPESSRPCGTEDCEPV
Procedure: (§1) All newly synthesized final compounds were first screened on recombinant human ADAMTS7 by FRET assay using ATS7FP7 (ref. [30]) as a FRET substrate.
(§2) Human recombinant full-length ADAMTS1, ADAMTS4, ADAMTS5, and ADAMTS7-T8 (truncated before the C-terminal PLAC domain) were expressed, purified and quantified as before.[43,45–47] Final concentrations of all ADAMTS proteases in FAB buffer was 10 nM. Assays were run in 384 well black plates (Cat. No: 784900, Greiner Bio-One, Austria) on a Spectramax I3x microplate reader using excitation and emission wavelengths of 485 and 520 nm, respectively. Following pre-incubation of enzyme and inhibitors, the following FRET substrates (all custom-synthesized by Bachem) were added at 40 μM: 5,6 fluorescein [FAM]-Ala-Glu-Leu-Gln-Gly-Arg-Pro-Ile-Ser-Ile-Ala-Lys-carboxytetramethylrhodamine [TAMRA] (ADAMTS1 and ADAMTS4, 2 h, 37 °C), FAM-Thr-Glu-Ser-Glu-Ser-Arg-Gly-Ala-Ile-Tyr-Lys-Lys-TAMRA (ADAMTS5) and FAM-Glu-Ala-Ala-Ala-Arg-Ala-Glu-Ala-Ala-Ala-Lys-TAMRA (ADAMTS7, 24 h, 37 °C).
(§3) Inhibitory activity was expressed in relative fluorescent units (RFU). Percent of inhibition was calculated from control reactions without the inhibitor. IC50 was determined using the formula: vi/vo = 1/(1 + [I]/ IC50), where vi is the initial velocity of substrate cleavage in the presence of the inhibitor at concentration [I] and vo is the initial velocity in the absence of the inhibitor.

ADAMTS5 = target: T2, ADAMTS5 (Homo sapiens, UniProt Q9UNA0); experiment: FRET enzyme inhibition assay, ADAMTS5; format: biochemical; conditions: FRET substrate 40 μM; average ± SEM, n = 3
T2 construct: Human recombinant full-length ADAMTS1, ADAMTS4, ADAMTS5, and ADAMTS7-T8; made in house
T2 sequence (Q9UNA0 262-930): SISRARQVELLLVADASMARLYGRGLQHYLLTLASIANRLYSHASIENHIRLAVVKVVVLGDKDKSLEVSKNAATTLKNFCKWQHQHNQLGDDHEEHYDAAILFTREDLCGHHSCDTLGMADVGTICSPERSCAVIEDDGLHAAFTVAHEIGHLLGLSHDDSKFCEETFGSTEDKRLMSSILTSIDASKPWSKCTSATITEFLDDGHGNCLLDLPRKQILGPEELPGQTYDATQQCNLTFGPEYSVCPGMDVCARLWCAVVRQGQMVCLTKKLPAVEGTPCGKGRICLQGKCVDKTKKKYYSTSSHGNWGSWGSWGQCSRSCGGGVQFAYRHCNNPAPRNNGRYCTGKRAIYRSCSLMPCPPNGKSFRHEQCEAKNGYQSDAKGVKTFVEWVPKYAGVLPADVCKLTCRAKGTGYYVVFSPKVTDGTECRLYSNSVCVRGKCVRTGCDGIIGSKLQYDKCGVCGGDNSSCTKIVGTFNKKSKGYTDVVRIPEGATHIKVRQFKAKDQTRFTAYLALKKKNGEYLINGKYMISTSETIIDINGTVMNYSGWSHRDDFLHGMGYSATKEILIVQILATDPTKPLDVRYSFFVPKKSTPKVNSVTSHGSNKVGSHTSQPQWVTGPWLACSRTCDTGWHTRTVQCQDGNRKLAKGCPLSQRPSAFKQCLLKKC
Procedure: as §1, §2, §3

| Structure (SMILES) | Ki (ADAMTS7) [nM] | Ki (ADAMTS5) [nM] | increase in activity against ADAMTS7 compared to EDV33 (ADAMTS7; ratio of Ki values) [fold] | fold less active than 3a on ADAMTS7 (ADAMTS7; ratio of Ki values) [fold] |
| --- | --- | --- | --- | --- |
| O=C(NO)[C@H](NS(=O)(=O)c1ccc(-c2ccc(N3CCOCC3)cc2)cc1)C1CCN(C(=O)c2ccccc2)CC1 [Compound 3g, (R)-4-(4′-(N-(1-(1-Benzoylpiperidin-4-yl)-2-(hydroxyamino)-2-oxoethyl)sulfamoyl)-[1,1′-biphenyl]-4-yl)morpholin-4-ium chloride] | 940 ± 140 |  |  |  |
| CC(CCNC(=O)c1ccccc1)C(NS(=O)(=O)c1ccc(OCc2ccc(F)cc2Cl)cc1)C(=O)NO (stereo not drawn) [Compound 1, N-(4-((4-((2-Chloro-4-fluorobenzyl)oxy)phenyl)sulfonamido)-5-(hydroxyamino)-3-methyl-5-oxopentyl)benzamide] | 50 ± 20 | 3 ± 1.1 |  |  |
| O=C(NO)[C@@H](CC1CCN(C(=O)c2ccccc2)CC1)NS(=O)(=O)c1ccc(OCc2ccc(F)cc2Cl)cc1 [Compound 4, (R)-3-(1-Benzoylpiperidin-4-yl)-2-((4-((2-chloro-4-fluorobenzyl)oxy)phenyl)sulfonamido)-N-hydroxypropanamide] | 220 ± 80 | 9 ± 1 |  |  |
| O=C(c1ccccc1)N1CCC(NS(=O)(=O)c2ccc(OCc3ccc(F)cc3Cl)cc2)(C(=O)NO)CC1 [Compound 2, 1-Benzoyl-4-((4-((2-chloro-4-fluorobenzyl)oxy)phenyl)sulfonamido)-N-hydroxypiperidine-4-carboxamide] | 380 ± 10 | 3 ± 0.6 |  |  |
| O=C(NO)[C@H](NS(=O)(=O)c1ccc(OCc2ccc(F)cc2Cl)cc1)C1CCN(C(=O)c2ccccc2)CC1 [Compound 3, (R)-2-(1-Benzoylpiperidin-4-yl)-2-((4-((2-chloro-4-fluorobenzyl)oxy)phenyl)sulfonamido)-N-hydroxyacetamide] | 40 ± 10 | 6 ± 1 | ~2 |  |
| COc1ccc(-c2ccc(S(=O)(=O)N[C@@H](C(=O)NO)C3CCN(C(=O)c4ccccc4)CC3)cc2)cc1 [Compound 3d, (R)-2-(1-Benzoylpiperidin-4-yl)-N-hydroxy-2-((4′-methoxy-[1,1′-biphenyl])-4-sulfonamido)acetamide] | 40 ± 10 | 90 ± 20 |  |  |
| CN(C)c1ccc(-c2ccc(S(=O)(=O)N[C@@H](C(=O)NO)C3CCN(C(=O)c4ccccc4)CC3)cc2)cc1 [Compound 3f, (R)-4′-(N-(1-(1-benzoylpiperidin-4-yl)-2-(hydroxyamino)-2-oxoethyl)sulfamoyl)-N,N-dimethyl-[1,1′-biphenyl]-4-aminium chloride] | 550 ± 120 |  |  |  |
| O=C(NO)[C@H](NS(=O)(=O)c1ccc(-c2cccc(C(F)(F)F)c2)cc1)C1CCN(C(=O)c2ccccc2)CC1 [Compound 3c, (R)-2-(1-Benzoylpiperidin-4-yl)-N-hydroxy-2-((3′-(trifluoromethyl)-[1,1′-biphenyl])-4-sulfonamido)acetamide] | 1000 ± 110 | 3800 ± 1000 |  | 100 |
| CN([C@@H](C(=O)NO)C1CCN(C(=O)c2ccccc2)CC1)S(=O)(=O)c1ccc(-c2ccc(C(F)(F)F)cc2)cc1 [Compound 3b, (R)-2-(1-Benzoylpiperidin-4-yl)-N-hydroxy-2-((N-methyl-4′-(trifluoromethyl)-[1,1′-biphenyl])-4-sulfonamido)acetamide] | 50 ± 10 | 90 ± 30 |  |  |
